Measured values published in US20070172815A1 (priority 2000, published 2007).

How the values were obtained:
[1] = biological target: Muscarinic acetylcholine receptor (Homo sapiens, UniProt P20309)
Procedure: (§1) A HEK-293 cell line (obtained from ATCC, Manassas, Va.) stably expressing the small conductance calcium-activated K^+ channel (SK2) was seeded at ~80% confluence in a 384 well microtiter plate, coated with poly-D-lysine plates, containing 20 μl/well low Cl^− cell growth medium. The cells were allowed to incubate overnight at 37 C in a 5% CO2 incubator.
(§2) The cell-containing plates were removed from the incubator and loaded for approximately 15 min with 2 μM BTC-AM (Molecular Probes, Eugene, Oreg.) dissolved in 20 μL/well Cl^−-free assay buffer containing amaranth and tartrazine (the final concentration in the assay is 2 mM amaranth and 1 mM tartrazine). The AM ester of BTC (BTC-AM) is membrane permeant. As it diffuses across the membrane, it is cleaved by cellular esterases, producing a charged, membrane impermeant dye, BTC. These types of dyes and loading mechanisms are well known to those familiar with the art.
(§3) All data shown were collected using the FLIPR (Molecular Devices, Sunnyvale, Calif). […] 10 seconds of baseline prior to addition of the stimulus buffer.

[2] = biological target: T1, non-selective cation channel vanilloid receptor (VR1) (Homo sapiens, UniProt Q8NER1); experiment: Thallium influx assay (BTC fluorescence) in CHO cells stably expressing VR1; type: cell-based
T1 construct: expressed in transfected cells
Procedure: as §1, §2
The microtiter plates were then transferred to the plate reader, FLIPR.
as §3
All experimental conditions for this example were the same as Example II with the following exceptions: • 1. The cell line CHO stably expressing the non-selective cation channel vanilloid receptor (VR1) was used. • 2. The channel antagonist, capsazepine (Sigma-Aldrich, RBI St Louis, Mo.) was applied at a final concentration of 10 μM; and • 3. The assay was started by adding 5 μl of stimulus buffer containing: 1 μM capsaicin and 7.5 mM Tl2SO4 dissolved in a Cl^−-free assay buffer containing 2 mM amaranth and 1 mM tartrazine.

[3] = biological target: T2, large conductance calcium-activated K+ channel, Maxi-K (a.k.a. BK, slo) (Homo sapiens, UniProt Q12791); experiment: Thallium influx assay (BTC fluorescence) in HEK-293 cells stably transfected with Maxi-K; type: cell-based
T2 construct: expressed in transfected cells
Procedure: HEK-293 cells were stably transfected with Maxi-K channels. […] The channel opener used was NS-1619 (Sigma-Aldrich, St Louis, Mo.) at a final concentration of 15 μM. The channel blocker used was Iberiotoxin (Sigma-Aldrich, St. Louis, Mo.) at a final concentration of 100 nM.
To detect channel blockers, the assay was started by adding 11 μl of stimulus buffer containing: 15 μM ionomycin, 12.5 Tl2SO4 and 50 mM K2SO4 dissolved in the Cl^−-free assay buffer (Table II) containing 2 mM amaranth and 1 mM tartrazine.
To detect channel openers, the stimulus buffer was identical to the assay conditions of the channel blockers with the exception that 5 μM ionomcyin was used in place of 15 μM ionomycin. Under these conditions the channels were submaximally opened, allowing observation of openers of the channels.

[4] = tested on: native, untransfected HEK cells; experiment: Control: BTC fluorescence in native, untransfected HEK cells under identical conditions; type: cell-based, human
Description: A person of ordinary skill in the art will understand that control experiments can be performed to facilitate analysis of the effects of the candidate modulator. Control experiments can be performed using: (1) native, untransfected cells under identical conditions of the methods of the invention; (2) the addition of thallium ions to the test mixture in the absence of stimulus solution; (3) cells under identical conditions of the methods of the invention, but without the candidate modulator of the ion channels, channel-linked receptors or ion transporters added to the test mixture; and/or (4) cells under identical conditions to the methods of the invention, but using known modulators of the ion channels, channel-linked receptors or ion transporters.
(§4) Once loaded, apamin (5 μl/well of 500 nM stock dissolved in Cl^−-free assay buffer (Table II) or an equivalent volume of Cl^−-free assay buffer) was added. The microtiter plates were then transferred to the plate reader, FLIPR. After, or coincident with exposure to apamin or Cl^−-free assay buffer alone, the cells were exposed to 5 μl/well of a stimulus buffer containing 5 μM ionomycin (Calbiochem) and 7.5 mM Tl2SO4 dissolved in Cl^−-free assay buffer containing 2 mM amaranth and 1 mM tartrazine.

[5] = biological target: T3, small conductance calcium-activated K+ channel (SK2) (Homo sapiens, UniProt Q9H2S1); experiment: Thallium efflux assay (FluoZin-1 fluorescence) in SK2 expressing HEK-293 cells; type: cell-based; settings: stimulus buffer with 5 μM ionomycin; cells preloaded with thallium; FIG. 5
T3 construct: expressed in transfected cells
Procedure: Instead of loading the cells with 2 μM BTC-AM, the cells were loaded with 2 μM FluoZin-1 (Molecular Probes, Eugene, Oreg.)
After loading the cells with FluoZin-1, the cells were exposed to 10 μl/well of Cl^−-free assay buffer containing 7.5 mM Tl2SO4 for 10 minutes at room temperature. This step loads the cells with thallium which interacts with the thallium ion sensitive fluorescent dye FluoZin-1 and increases its fluorescence.
Following loading the cells with thallium ions, the solution bathing the cells was aspirated off, and replaced with 80 μl/well of Cl^−-free assay buffer.

[6] = biological target: T3, small conductance calcium-activated K+ channel (SK2); experiment: Thallium influx assay (BTC fluorescence, FLIPR) in HEK-293 cells stably expressing SK2; type: cell-based; settings: stimulus buffer with 5 μM ionomycin and 7.5 mM Tl2SO4; FIG. 1
Procedure: as §4

[7] = biological target: T4, voltage-gated K+ channel KCNQ2 (Mus musculus, UniProt Q9Z351); experiment: Thallium influx assay (BTC fluorescence) in HEK-293 cells stably transfected with KCNQ2; type: cell-based; settings: 15 μM final; thallium ions (5 mM) and K+ (20 mM); FIG. 3A
T4 construct: expressed in transfected cells
Procedure: as §4
HEK-293 cell line stably transfected with the voltage-gated K^+ channel KCNQ2 was used; • 2. The channel opener used was retigabine (Main, M. J., et al., Mol. Pharmacol., 2000, 58, 253-62) at a final concentration of 15 μM; and • 3. The channel blocker DMP-543 (Zaczek, R., et al., J. Pharmacol. Exp. Ther. 1998, 285, 724-30) used was at a final concentration of 15 μM.
To detect channel blockers the KCNQ2 channels were opened with a combination of thallium ions (5 mM) and K^+ (20 mM). To detect openers the assay was initiated with thallium ions (3 mM).
To detect channel blockers the assay was started by adding 11 μl of stimulus buffer containing: 12.5 mM Tl2SO4 and 50 mM K2SO4 dissolved in the Cl^−-free assay buffer (Table II) containing 2 mM amaranth and 1 mM tartrazine. […]

[8] = Example III (Maxi-K) conditions

T1 sequence (Q8NER1 whole entry): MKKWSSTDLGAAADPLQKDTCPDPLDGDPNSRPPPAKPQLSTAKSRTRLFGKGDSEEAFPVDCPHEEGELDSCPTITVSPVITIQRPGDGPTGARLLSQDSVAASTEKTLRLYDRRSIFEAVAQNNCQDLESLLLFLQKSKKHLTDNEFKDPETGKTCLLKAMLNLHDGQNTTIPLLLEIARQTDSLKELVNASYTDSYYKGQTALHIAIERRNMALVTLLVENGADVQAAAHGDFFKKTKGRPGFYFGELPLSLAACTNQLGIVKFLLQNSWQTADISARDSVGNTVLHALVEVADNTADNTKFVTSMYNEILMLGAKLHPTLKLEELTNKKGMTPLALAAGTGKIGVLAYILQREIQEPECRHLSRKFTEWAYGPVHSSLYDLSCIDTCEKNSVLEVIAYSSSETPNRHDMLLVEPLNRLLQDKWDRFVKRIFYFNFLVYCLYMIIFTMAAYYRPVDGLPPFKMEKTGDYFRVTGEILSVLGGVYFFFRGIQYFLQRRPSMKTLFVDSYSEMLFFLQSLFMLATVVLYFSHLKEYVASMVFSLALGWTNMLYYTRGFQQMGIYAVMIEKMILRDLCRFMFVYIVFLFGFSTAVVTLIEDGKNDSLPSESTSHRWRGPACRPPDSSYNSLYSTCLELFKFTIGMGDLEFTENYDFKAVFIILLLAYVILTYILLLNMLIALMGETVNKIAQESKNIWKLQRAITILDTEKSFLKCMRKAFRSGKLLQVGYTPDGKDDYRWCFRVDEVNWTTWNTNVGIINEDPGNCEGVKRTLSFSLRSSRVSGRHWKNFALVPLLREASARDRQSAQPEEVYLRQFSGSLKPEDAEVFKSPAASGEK
T2 sequence (Q12791 whole entry): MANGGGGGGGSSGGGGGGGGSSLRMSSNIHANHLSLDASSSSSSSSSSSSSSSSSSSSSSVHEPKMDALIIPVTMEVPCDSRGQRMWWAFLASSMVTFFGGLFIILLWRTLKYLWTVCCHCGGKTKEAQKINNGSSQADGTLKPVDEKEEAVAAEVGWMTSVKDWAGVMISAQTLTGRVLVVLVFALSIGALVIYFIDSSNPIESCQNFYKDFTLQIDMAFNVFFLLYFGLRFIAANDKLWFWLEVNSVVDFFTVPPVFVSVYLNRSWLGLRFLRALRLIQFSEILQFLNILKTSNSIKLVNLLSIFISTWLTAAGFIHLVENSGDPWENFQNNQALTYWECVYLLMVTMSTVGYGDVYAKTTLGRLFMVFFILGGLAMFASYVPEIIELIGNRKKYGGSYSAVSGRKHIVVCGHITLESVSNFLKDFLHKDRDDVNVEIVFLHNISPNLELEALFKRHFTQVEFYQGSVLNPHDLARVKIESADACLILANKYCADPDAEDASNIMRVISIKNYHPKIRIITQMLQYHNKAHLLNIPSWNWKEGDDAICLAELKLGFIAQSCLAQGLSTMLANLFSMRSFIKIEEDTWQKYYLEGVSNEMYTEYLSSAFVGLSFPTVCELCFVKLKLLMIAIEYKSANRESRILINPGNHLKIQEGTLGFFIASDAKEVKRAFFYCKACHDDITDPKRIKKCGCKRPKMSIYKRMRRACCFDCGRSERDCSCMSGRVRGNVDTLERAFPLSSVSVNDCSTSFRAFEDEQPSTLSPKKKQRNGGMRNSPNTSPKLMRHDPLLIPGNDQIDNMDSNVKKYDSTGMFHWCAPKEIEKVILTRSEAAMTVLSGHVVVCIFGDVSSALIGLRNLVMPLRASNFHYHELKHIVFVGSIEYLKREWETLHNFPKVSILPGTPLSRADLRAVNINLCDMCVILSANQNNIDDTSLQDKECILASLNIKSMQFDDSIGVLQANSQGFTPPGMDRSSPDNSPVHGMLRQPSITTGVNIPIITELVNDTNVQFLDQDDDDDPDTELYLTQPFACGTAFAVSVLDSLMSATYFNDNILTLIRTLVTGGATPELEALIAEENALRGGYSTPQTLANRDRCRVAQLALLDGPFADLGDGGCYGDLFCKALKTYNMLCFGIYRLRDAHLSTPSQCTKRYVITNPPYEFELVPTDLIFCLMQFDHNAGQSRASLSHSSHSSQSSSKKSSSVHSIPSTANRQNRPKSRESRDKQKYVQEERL
T3 sequence (Q9H2S1 whole entry): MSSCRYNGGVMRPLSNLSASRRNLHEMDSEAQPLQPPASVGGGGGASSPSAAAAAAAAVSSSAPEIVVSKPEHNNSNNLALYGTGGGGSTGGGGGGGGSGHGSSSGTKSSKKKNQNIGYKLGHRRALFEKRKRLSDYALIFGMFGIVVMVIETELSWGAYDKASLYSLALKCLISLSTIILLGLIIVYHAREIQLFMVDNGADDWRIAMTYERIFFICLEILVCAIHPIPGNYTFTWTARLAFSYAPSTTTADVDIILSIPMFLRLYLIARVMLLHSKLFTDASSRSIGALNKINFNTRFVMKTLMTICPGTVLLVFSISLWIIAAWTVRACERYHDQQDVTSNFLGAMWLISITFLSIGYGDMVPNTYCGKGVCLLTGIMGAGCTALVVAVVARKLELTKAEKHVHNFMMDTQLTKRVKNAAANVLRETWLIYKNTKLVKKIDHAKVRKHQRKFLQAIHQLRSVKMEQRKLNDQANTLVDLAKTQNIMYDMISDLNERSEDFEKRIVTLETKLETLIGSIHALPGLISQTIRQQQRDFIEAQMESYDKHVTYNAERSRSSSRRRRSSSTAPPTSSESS
T4 sequence (Q9Z351 whole entry): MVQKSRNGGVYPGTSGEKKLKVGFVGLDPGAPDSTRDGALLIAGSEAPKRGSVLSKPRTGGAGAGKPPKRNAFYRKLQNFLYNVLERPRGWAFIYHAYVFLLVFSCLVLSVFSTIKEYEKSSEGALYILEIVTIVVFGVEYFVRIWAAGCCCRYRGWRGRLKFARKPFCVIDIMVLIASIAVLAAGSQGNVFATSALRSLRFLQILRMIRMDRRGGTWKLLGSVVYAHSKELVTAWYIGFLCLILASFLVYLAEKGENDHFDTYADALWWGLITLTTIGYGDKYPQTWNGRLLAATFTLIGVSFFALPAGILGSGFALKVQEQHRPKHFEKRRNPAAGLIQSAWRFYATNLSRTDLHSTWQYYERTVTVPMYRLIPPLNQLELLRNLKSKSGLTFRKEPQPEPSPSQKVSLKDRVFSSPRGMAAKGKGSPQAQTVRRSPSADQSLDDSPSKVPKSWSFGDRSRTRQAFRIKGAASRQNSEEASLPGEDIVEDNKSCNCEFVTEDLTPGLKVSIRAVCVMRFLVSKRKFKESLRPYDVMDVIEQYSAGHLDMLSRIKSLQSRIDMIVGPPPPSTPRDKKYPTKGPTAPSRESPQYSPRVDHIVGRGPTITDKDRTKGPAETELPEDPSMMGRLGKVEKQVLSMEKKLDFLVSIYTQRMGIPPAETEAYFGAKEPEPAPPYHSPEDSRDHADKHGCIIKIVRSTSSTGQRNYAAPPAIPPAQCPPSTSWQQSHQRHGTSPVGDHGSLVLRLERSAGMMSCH
Muscarinic acetylcholine receptor, sequence (P20309 whole entry): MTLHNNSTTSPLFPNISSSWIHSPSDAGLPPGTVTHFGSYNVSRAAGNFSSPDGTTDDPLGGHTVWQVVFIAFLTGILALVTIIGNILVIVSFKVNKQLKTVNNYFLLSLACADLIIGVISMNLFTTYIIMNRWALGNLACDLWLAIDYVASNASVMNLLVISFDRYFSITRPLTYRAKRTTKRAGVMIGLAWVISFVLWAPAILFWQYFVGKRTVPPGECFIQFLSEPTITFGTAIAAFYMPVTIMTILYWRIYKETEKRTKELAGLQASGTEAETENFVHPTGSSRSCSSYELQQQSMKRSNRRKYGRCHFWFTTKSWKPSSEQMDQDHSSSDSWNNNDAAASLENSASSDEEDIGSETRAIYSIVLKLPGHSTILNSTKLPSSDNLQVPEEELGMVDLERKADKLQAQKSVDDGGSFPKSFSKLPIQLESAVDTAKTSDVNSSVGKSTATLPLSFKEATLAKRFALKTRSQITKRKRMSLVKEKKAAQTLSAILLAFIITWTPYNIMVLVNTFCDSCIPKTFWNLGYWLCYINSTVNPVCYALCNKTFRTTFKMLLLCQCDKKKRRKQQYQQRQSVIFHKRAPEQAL

C[N+](C)(C)CC#CCN1CCCC1=O [oxo-M, oxotremorine-M]
Change in BTC fluorescence upon addition of muscarinic receptor agonist [1]: increase in BTC fluorescence

Oc1cc2c(cc1O)CN(C(=S)NCCc1ccc(Cl)cc1)CCC2 [capsazepine]
Effect of antagonist on the thallium/capsaicin-induced increase in BTC fluorescence ([2]; 10 μM final, FIG. 4): completely abolished | Effect of compound alone on BTC fluorescence in VR1 expressing CHO cells [2]: no effect

O=c1[nH]c2cc(C(F)(F)F)ccc2n1-c1cc(C(F)(F)F)ccc1O [NS-1619]
Effect of opener on the thallium-induced increase in BTC fluorescence compared to absence of opener [3]: marked increase | Effect on the fluorescence of BTC loaded into native, untransfected HEK cells [4, 8]: Neither iberiotoxin nor NS-1619 had any effects

Iberiotoxin (QFTDVDCSVSKECWSVCKDLFGVDRGKCMGKKCRCYQ; UniProt P24663 1-37, looked up)
Effect of blocker on the thallium/ionomycin/potassium-induced increase in BTC fluorescence ([3]; 100 nM final, stimulus buffer with 15 μM ionomycin, FIG. 2A): completely abolished | Effect on the fluorescence of BTC loaded into native, untransfected HEK cells [4, 8]: Neither iberiotoxin nor NS-1619 had any effects

COc1cc(CNC(=O)CCCC/C=C/C(C)C)ccc1O [capsaicin]
Effect of compound alone on BTC fluorescence in VR1 expressing CHO cells [2]: small decrease, but no increase | Change in BTC fluorescence upon addition of thallium and agonist ([2]; stimulus buffer with 1 μM capsaicin and 7.5 mM Tl2SO4, FIG. 4): substantial increase

C[C@H](CCC(=O)O)C[C@H](C)C[C@H](C)C(=O)/C=C(\O)[C@H](C)C[C@H](C)C/C=C/[C@@H](C)[C@@H](O)[C@@H](C)[C@@H](O)C[C@@H]1CC[C@@](C)([C@H]2CC[C@@](C)([C@@H](C)O)O2)O1 [ionomycin]
Change in FluoZin-1 fluorescence upon addition of ionomycin (thallium efflux via activated SK channel) [5]: decrease in fluorescence | Change in BTC fluorescence upon addition of thallium ions plus ionomycin (activation of SK2) [6]: substantial increase

O=C1c2ccccc2C(Cc2ccnc(F)c2)(Cc2ccnc(F)c2)c2ccccc21 [DMP-543]
Effect of blocker on the thallium/potassium-induced increase in BTC fluorescence [7]: completely abolished | Effect on the fluorescence of BTC loaded into native, untransfected HEK cells ([4]; Example IV (KCNQ2) conditions): Neither DMP-543 nor retigabine had any effects
